The compounds below were run against T1, MR (Homo sapiens, UniProt P08235) (assay: Cell-Based Reporter Assay (Gal4 DBD-MR LBD luciferase reporter, antagonist mode)). Conditions: antagonist mode vs aldosterone at EC80; transfected human liver cells (Huh7); luciferase readout; Examples 3, 6, 12 and 13 tested in analogous format with minor variations.
T1 construct: expressed in transfected cells; host or cells: Huh7 human liver cells, transient transfection
T1 sequence (P08235 726-964 limits assumed): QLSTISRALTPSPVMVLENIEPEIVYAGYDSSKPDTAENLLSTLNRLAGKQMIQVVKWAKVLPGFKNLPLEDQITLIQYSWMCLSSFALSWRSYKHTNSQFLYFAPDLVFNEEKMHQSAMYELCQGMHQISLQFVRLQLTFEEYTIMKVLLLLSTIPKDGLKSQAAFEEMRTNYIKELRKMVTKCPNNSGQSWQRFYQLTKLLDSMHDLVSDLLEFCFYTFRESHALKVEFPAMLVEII
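Further: cells co-transfected with a Gal4 response element luciferase plasmid, compound exposure overnight before lysis and luminescence counting, IC50 reflects reduced aldosterone-stimulated reporter signal.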

Compound | IC50
COC(=O)c1ccc(C2=NN(c3ccc(C#N)c(C)c3)C(C3CCCC3)C2)nc1OC (centres unmarked) [Example 1, Methyl 6-(1-(4-cyano-3-methylphenyl)-5-cyclopentyl-4,5-dihydro-1H-pyrazol-3-yl)-2-methoxynicotinate] | 34.6 nM
COC(=O)c1ccc(C2=NN(c3ccc(C#N)c(C)c3)[C@@H](C3CCCC3)C2)nc1OC [Example 2] | 9.2 nM
COc1cc(N2N=C(c3ccc(C(=O)O)c(OC)n3)CC2C2CCCC2)ccc1C#N (centres unmarked) [Example 6, 6-[1-(4-cyano-3-methoxy-phenyl)-5-cyclopentyl-4,5-dihydro-1H-pyrazol-3-yl]-2-methoxy-nicotinic acid] | 9 nM
COc1cc(C2=NN(c3ccc(C#N)c(Cl)c3)[C@@H](C3CCCC3)C2)ncc1C(=O)O [Example 13, (R)-6-(1-(3-chloro-4-cyanophenyl)-5-cyclopentyl-4,5-dihydro-1H-pyrazol-3-yl)-4-methoxynicotinic acid] | 2000 nM
COC(=O)c1ccc(C2=NN(c3ccc(C#N)c(C)n3)[C@@H](C3CCCC3)C2)cc1 [Example 14, (R)-methyl 4-(1-(5-cyano-6-methylpyridin-2-yl)-5-cyclopentyl-4,5-dihydro-1H-pyrazol-3-yl)benzoate] | > 2260 nM
Cc1nc(N2N=C(c3ccc(C(N)=O)cc3)C[C@@H]2C2CCCC2)ccc1C#N [Example 16, (R)-4-(1-(5-cyano-6-methylpyridin-2-yl)-5-cyclopentyl-4,5-dihydro-1H-pyrazol-3-yl)benzamide] | 13.4 nM
Cc1nc(N2N=C(c3ccc(S(C)(=O)=O)cc3)C[C@@H]2C2CCCC2)ccc1C#N [Example 17, (R)-6-(5-cyclopentyl-3-(4-(methylsulfonyl)phenyl)-4,5-dihydro-1H-pyrazol-1-yl)-2-methylnicotinonitrile] | 8.4 nM
Cc1nc(N2N=C(c3ccc4ncn(C)c(=O)c4c3)C[C@@H]2C2CCCC2)ccc1C#N [Example 18, (R)-6-(5-cyclopentyl-3-(3-methyl-4-oxo-3,4-dihydroquinazolin-6-yl)-4,5-dihydro-1H-pyrazol-1-yl)-2-methylnicotinonitrile] | 1.9 nM
Cc1nc(N2N=C(c3ccc4c(c3)NC(=O)CO4)C[C@@H]2C2CCCC2)ccc1C#N [Example 19, (R)-6-(5-cyclopentyl-3-(3-oxo-3,4-dihydro-2H-benzo[b][1,4]oxazin-6-yl)-4,5-dihydro-1H-pyrazol-1-yl)-2-methylnicotinonitrile] | 10.8 nM
Cc1nc(N2N=C(c3ccc(S(N)(=O)=O)cc3)C[C@@H]2C2CCCC2)ccc1C#N [Example 20, (R)-4-(1-(5-cyano-6-methylpyridin-2-yl)-5-cyclopentyl-4,5-dihydro-1H-pyrazol-3-yl)benzenesulfonamide] | 19.7 nM
Cc1nc(N2N=C(c3cccc(S(C)(=O)=O)c3)C[C@@H]2C2CCCC2)ccc1C#N [Example 21, (R)-6-(5-cyclopentyl-3-(3-(methylsulfonyl)phenyl)-4,5-dihydro-1H-pyrazol-1-yl)-2-methylnicotinonitrile] | 105 nM
CCS(=O)(=O)c1ccc(C2=NN(c3ccc(C#N)c(C)n3)[C@@H](C3CCCC3)C2)cc1 [Example 22, (R)-6-(5-cyclopentyl-3-(4-(ethylsulfonyl)phenyl)-4,5-dihydro-1H-pyrazol-1-yl)-2-methylnicotinonitrile] | 13.5 nM
Cc1cc(C2=NN(c3ccc(C#N)c(C)n3)[C@@H](C3CCCC3)C2)ccc1C#N [Example 23, (R)-6-(3-(4-cyano-3-methylphenyl)-5-cyclopentyl-4,5-dihydro-1H-pyrazol-1-yl)-2-methylnicotinonitrile] | 113 nM
Cc1cc(C2=NN(c3ccc(C#N)c(C)n3)[C@@H](C3CCCC3)C2)ccc1C(N)=O [Example 24, (R)-4-(1-(5-cyano-6-methylpyridin-2-yl)-5-cyclopentyl-4,5-dihydro-1H-pyrazol-3-yl)-2-methylbenzamide] | 25 nM
Cc1nc(N2N=C(c3ccc(NS(C)(=O)=O)cc3)C[C@@H]2C2CCCC2)ccc1C#N [Example 25, (R)—N-(4-(1-(5-cyano-6-methylpyridin-2-yl)-5-cyclopentyl-4,5-dihydro-1H-pyrazol-3-yl)phenyl)methanesulfonamide] | 48.4 nM
COc1cc(C2=NN(c3ccc(C#N)c(C)n3)[C@@H](C3CCCC3)C2)ccc1C#N [Example 26, (R)-6-(3-(4-cyano-3-methoxyphenyl)-5-cyclopentyl-4,5-dihydro-1H-pyrazol-1-yl)-2-methylnicotinonitrile] | 85.3 nM
COc1cc(C2=NN(c3ccc(C#N)c(C)n3)[C@@H](C3CCCC3)C2)ccc1C(N)=O [Example 27] | 5.2 nM
COc1cccc(C2=NN(c3ccc(C#N)c(C)n3)[C@@H](C3CCCC3)C2)n1 [Example 28, (R)-6-(5-cyclopentyl-3-(6-methoxypyridin-2-yl)-4,5-dihydro-1H-pyrazol-1-yl)-2-methylnicotinonitrile] | 97.6 nM

Continued, values first:

IC50 | Compound
30.6 nM | Cc1nc(N2N=C(c3cccc(C(N)=O)c3)C[C@@H]2C2CCCC2)ccc1C#N [Example 29, (R)-3-(1-(5-cyano-6-methylpyridin-2-yl)-5-cyclopentyl-4,5-dihydro-1H-pyrazol-3-yl)benzamide]
9.7 nM | Cc1nc(N2N=C(c3ccc4c(c3)CNC4=O)C[C@@H]2C2CCCC2)ccc1C#N [Example 30, (R)-6-(5-cyclopentyl-3-(1-oxoisoindolin-5-yl)-4,5-dihydro-1H-pyrazol-1-yl)-2-methylnicotinonitrile]
11.2 nM | Cc1nc(N2N=C(c3ccc4c(c3)C(=O)NC4)C[C@@H]2C2CCCC2)ccc1C#N [Example 31, (R)-6-(5-cyclopentyl-3-(3-oxoisoindolin-5-yl)-4,5-dihydro-1H-pyrazol-1-yl)-2-methylnicotinonitrile]
8.9 nM | COC(=O)c1cc(C2=NN(c3ccc(C#N)c(C)n3)[C@@H](C3CCCC3)C2)ccc1S(C)(=O)=O [Example 35, (R)-methyl 5-(1-(5-cyano-6-methylpyridin-2-yl)-5-cyclopentyl-4,5-dihydro-1H-pyrazol-3-yl)-2-(methylsulfonyl)benzoate]
225 nM | COc1ccc(C2=NN(c3ccc(C#N)c(C)n3)[C@@H](C3CCCC3)C2)cc1C(=O)O [Example 36, (R)-5-(1-(5-cyano-6-methylpyridin-2-yl)-5-cyclopentyl-4,5-dihydro-1H-pyrazol-3-yl)-2-methoxybenzoic acid]
82.2 nM | COC(=O)c1ccc(C2=NN(c3ccc(C#N)c(C)n3)[C@@H](C3CCCC3)C2)c(OC)c1 [Example 38, (R)-methyl 4-(1-(5-cyano-6-methylpyridin-2-yl)-5-cyclopentyl-4,5-dihydro-1H-pyrazol-3-yl)-3-methoxybenzoate]
7 nM | COc1cc(C(=O)O)ccc1C1=NN(c2ccc(C#N)c(C)n2)[C@@H](C2CCCC2)C1 [Example 39, (R)-methyl 4-(1-(5-cyano-6-methylpyridin-2-yl)-5-cyclopentyl-4,5-dihydro-1H-pyrazol-3-yl)-3-methoxybenzoic acid]
9.1 nM | CCOc1cc(C2=NN(c3ccc(C#N)c(C)n3)[C@@H](C3CCCC3)C2)ccc1C(=O)O [Example 41, (R)-4-(1-(5-cyano-6-methylpyridin-2-yl)-5-cyclopentyl-4,5-dihydro-1H-pyrazol-3-yl)-2-ethoxybenzoic acid]
5 nM | CCOc1cc(C2=NN(c3ccc(C#N)c(C)n3)[C@@H](C3CCCC3)C2)ccc1C(N)=O [Example 42, (R)-4-(1-(5-cyano-6-methylpyridin-2-yl)-5-cyclopentyl-4,5-dihydro-1H-pyrazol-3-yl)-2-ethoxybenzamide]
130 nM | COc1cccc(C2=NN(c3ccc(C#N)c(C)n3)[C@@H](C3CCCC3)C2)c1 [Example 43, (R)-6-(5-cyclopentyl-3-(3-methoxyphenyl)-4,5-dihydro-1H-pyrazol-1-yl)-2-methylnicotinonitrile]
20.6 nM | Cc1nc(N2N=C(c3ccc4c(c3)CCC(=O)N4)C[C@@H]2C2CCCC2)ccc1C#N [Example 45, (R)-6-(5-cyclopentyl-3-(2-oxo-1,2,3,4-tetrahydroquinolin-6-yl)-4,5-dihydro-1H-pyrazol-1-yl)-2-methylnicotinonitrile]
42 nM | Cc1nc(N2N=C(c3ccc4c(c3)OCC(=O)N4)C[C@@H]2C2CCCC2)ccc1C#N [Example 46, (R)-6-(5-cyclopentyl-3-(3-oxo-3,4-dihydro-2H-benzo[b][1,4]oxazin-7-yl)-4,5-dihydro-1H-pyrazol-1-yl)-2-methylnicotinonitrile]
12 nM | Cc1nc(N2N=C(c3ccc4c(c3)CNC(=O)N4)C[C@@H]2C2CCCC2)ccc1C#N [Example 47, (R)-6-(5-cyclopentyl-3-(2-oxo-1,2,3,4-tetrahydroquinazolin-6-yl)-4,5-dihydro-1H-pyrazol-1-yl)-2-methylnicotinonitrile]
8.2 nM | CCOc1nc(C2=NN(c3ccc(C#N)c(C)n3)[C@@H](C3CCCC3)C2)ccc1C(=O)O [Example 51, (R)-6-(1-(5-cyano-6-methylpyridin-2-yl)-5-cyclopentyl-4,5-dihydro-1H-pyrazol-3-yl)-2-ethoxynicotinic acid]
62.3 nM | COc1cc(C2=NN(c3ccc(C#N)c(C)n3)[C@@H](C3CCCC3)C2)ccc1O [Example 52, (R)-6-(5-cyclopentyl-3-(4-hydroxy-3-methoxyphenyl)-4,5-dihydro-1H-pyrazol-1-yl)-2-methylnicotinonitrile]
95.7 nM | COc1cc(C2=NN(c3ccc(C#N)c(C)n3)[C@@H](C3CCCC3)C2)ccc1CC(=O)O [Example 54, (R)-2-(4-(1-(5-cyano-6-methylpyridin-2-yl)-5-cyclopentyl-4,5-dihydro-1H-pyrazol-3-yl)-2-methoxyphenyl)acetic acid]
3.9 nM | CCOc1nc(C2=NN(c3ccc(C#N)c(C)c3)[C@@H](C3CCCC3)C2)ccc1C(N)=O [Example 55, (R)-6-(1-(4-cyano-3-methylphenyl)-5-cyclopentyl-4,5-dihydro-1H-pyrazol-3-yl)-2-ethoxynicotinamide]

Reference: patent US20120022058A1, “4,5-DIHYDRO-1H-PYRAZOLE COMPOUNDS AND THEIR PHARMACEUTICAL USES” (Pfizer Inc., priority 2009, published 2012)
